In patent US20060269978A1, “Method and device for monitoring platelet function” (priority 2005, published 2006):

Tested on: platelet function
Assay: Platelet Reactivity Test (PRT) on fingerprick whole blood of volunteers before and after taking aspirin
Format: in vivo
Conditions: human volunteers after taking aspirin, single-passageway cartridge with spring, most volunteers
Description: The PRT test is used to activate platelet gel formations using a small (20 microliter) whole blood sample to help identify proper platelet function in the absence of platelet drug therapy and to identify inhibited platelet function in the presence of platelet drug therapy. The test is performed by running a small quantity of blood through a channel restriction that will induce the formation of platelet gels and trap them in a focused area similar to the way platelets are activated and focused in the body.
In use, the cartridge is secured in instrument 400 and preheated for three to five minutes at 33C. The cartridge is then removed from the instrument 400 and 40 μl of blood previously taken from a subject by a pinprick is placed in capillary tube 370, which is already bonded to the capillary tube port 200. The cartridge 150 is then placed back in the instrument 400. The instrument 400 is maintained at 33C. In a preferred embodiment, the cartridge 150 has a bar code that is read by the instrument 400. The instrument 400 will reject the cartridge 150 if the cartridge has been out of the instrument for more than two minutes after the preheating step.
[…] A gel forms and the pumps 350, 351 operate until an end point is reached. […]

## CC(=O)Oc1ccccc1C(=O)O [aspirin]
  PRT (platelet reactivity time): greater than 150 seconds
